In the supplement of paper PMC11451515:

Assays:
Assay in all cases: AUC of viability dose-response curve (% viability x log10 dose units); higher = less sensitive
Conditions in all cases: 48 h
[1] = test system: P12-Ichikawa
Procedure, shortened: (§1)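 Leukemia cells adapted to each medium (500 or 1000 cells/well, 1536-well plates) were exposed to library compounds in DMSO for 48 h at 37°C at 11 threefold doses, 47 μM to 0.79 nM. Luminescence by CellTiter-Glo One was normalised per plate to DMSO and cell-free wells, then fitted with a four-parameter log-logistic curve on log10 dose. Curves above full viability were scaled and quality-control failures removed before area under the curve was integrated by trapezoidal rule.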

[2] = test system: SEM cells
Procedure, shortened: as §1

[3] = test system: NOMO1
Procedure, shortened: as §1

[4] = RPMI 5 mM glucose + 10% dialyzed FBS

SMILES	AUC of viability dose-response curve ([1]; HPLM + 10% dialyzed FBS)	AUC of viability dose-response curve ([1]; RPMI 5 mM glucose + 10% FBS)	AUC of viability dose-response curve [1, 4]	AUC of viability dose-response curve ([2]; HPLM + 10% dialyzed FBS)	AUC of viability dose-response curve ([2]; RPMI 5 mM glucose + 10% FBS)	AUC of viability dose-response curve [2, 4]	AUC of viability dose-response curve ([3]; HPLM + 10% dialyzed FBS)	AUC of viability dose-response curve ([3]; RPMI 5 mM glucose + 10% FBS)	AUC of viability dose-response curve [3, 4]
CC[C@]12CC[C@H]3[C@@H](CCC/4=C/C(=O)CC[C@H]34)[C@@H]1CC[C@@]2(O)C#C	413	405	386	417	448	452			
O=S(=O)([O-])CCS.[Na+]	379	383	407	452	443	405	367	341	351
COc1ccc(C(=O)c2c(C)n(CCN3CCOCC3)c3ccccc23)cc1	456	463	434	459	400	449	466	439	430
COc1cc(Nc2c(C#N)cnc3cc(OCCCN4CCN(C)CC4)c(OC)cc23)c(Cl)cc1Cl	372	382	382				370	397	407
C[C@@H]1O[C@@H](O[C@H]2C[C@@H](O)[C@]3(CO)[C@H]4[C@H](O)C[C@]5(C)[C@@H](C6=CC(=O)OC6)CC[C@]5(O)[C@@H]4CC[C@]3(O)C2)[C@H](O)[C@H](O)[C@H]1O	203	235	211	179	234	216	197	248	227
Cc1cc(O)c2c(c1)C(=O)c1cccc(O)c1C2=O	465	472	466	445	439	449	460	475	460
O=C1\C=C/C=C2/[C@H]3CNC[C@H](C3)CN12	457	459	459	462	466	456	447	458	464
C/C(=N\NC(=S)N1CCC1)c1ccccn1	127	120	122				122	140	121
NC[C@@H]1O[C@H](O[C@H]2[C@@H](O)[C@H](O[C@@H]3[C@@H](O)[C@H](N)C[C@H](N)[C@H]3O[C@H]3O[C@H](CN)[C@@H](O)[C@H](O)[C@H]3N)O[C@@H]2CO)[C@H](N)[C@@H](O)[C@@H]1O.O=S(=O)(O)O.O=S(=O)(O)O.O=S(=O)(O)O	473	467	461	476	463	458	468	465	428
N#Cc1ccc(Oc2ccc3c(c2)COB3O)cc1	425	463	460	458	458	461	413	463	466
O=C(CCCCCCC(=O)Nc1cccnc1)NO	400	374	368	401	402	375	435	399	432
Cc1ccccc1C(OCCN(C)C)c1ccccc1 (stereo not given)	446	476	469	453	463	465	462	468	457
CC(C)(S)[C@@H](N)C(=O)O	471	468	476	439	431	455	469	472	465
c1ccc2c(Cc3c[nH]c4ccccc34)c[nH]c2c1	434	420	417	385	396	376	440	434	444
CC(NC(C)(C)C)C(=O)c1cccc(Cl)c1 (stereo not given)	470	473	472	444	433	436	448	476	456
C[C@@H](NCCCc1cccc(C(F)(F)F)c1)c1cccc2ccccc12	455	455	439	467	458	445	455	418	447
COc1cc([C@@H](CC(=O)O)c2ccc(C)c(CN3C[C@@H](C)Oc4ccccc4[S+]3(=O)[O-])c2)cc2nnn(C)c12	407	446	452	452	350	367	403	418	431
[O-]C(=O)C/1=N/C(=O)NC(=O)N1	441	427	420	423	412	438	444	434	408
O=C(O)CCCCC(CCSCc1ccccc1)SCc1ccccc1 (stereo not given)	433	462	457	463	458	467	446	457	451
O=[N+]([O-])c1ncc[nH]1	418	395	414	402	444	459	416	402	400
Cc1nc2cc(C(=O)N3CCC4(CC3)CC(=O)c3c(cnn3C(C)C)C4)ccc2[nH]1	457	469	458				465	471	455
CN(C)c1ccc2nc3ccc(N(C)C)cc3[s+]c2c1	387	386	395				401	374	376
CC(C)N(C[C@H]1O[C@@H](n2cnc3c(N)ncnc32)[C@H](O)[C@@H]1O)[C@H]1C[C@@H](CCc2nc3cc(C(C)(C)C)ccc3[nH]2)C1	320	450	383	411	333	399	386	450	429
C[N]1C=C(C2=CC=CC=C12)\C3=C(\C(=O)NC3=O)C4=C[N](C5CCN(CC5)CC6=NC=CC=C6)C7=C4C=CC=C7	472	475	472	461	446	454	458	424	445

SMILES	AUC of viability dose-response curve ([1]; HPLM + 10% dialyzed FBS)	AUC of viability dose-response curve ([1]; RPMI 5 mM glucose + 10% FBS)	AUC of viability dose-response curve [1, 4]	AUC of viability dose-response curve ([2]; HPLM + 10% dialyzed FBS)	AUC of viability dose-response curve ([2]; RPMI 5 mM glucose + 10% FBS)	AUC of viability dose-response curve [2, 4]	AUC of viability dose-response curve ([3]; HPLM + 10% dialyzed FBS)	AUC of viability dose-response curve ([3]; RPMI 5 mM glucose + 10% FBS)	AUC of viability dose-response curve [3, 4]
N#C/C(=C\c1ccc(O)c(O)c1)C(=O)NCc1ccccc1	448	436	421	447	440	440	446	447	460
COc1cc2ncn(-c3cc(OCc4ccccc4[S+](C)(=O)[O-])c(C#N)s3)c2cc1OC	450	450	428	457	461	470	443	435	457
CCn1c(-c2nonc2N)nc2c(C#CC(C)(C)O)ncc(OC[C@H]3CCCNC3)c21	358	282	313	341	397	345	360	388	390
OC1=CC2=C(C=C1)C(=O)\C(=C(O2)\C3=CC(=C(O)C=C3)O)O	430	420	406	456	456	418			
CCC(C)N1\N=C/N(C1=O)C2=CC=C(C=C2)N3CCN(CC3)C4=CC=C(OC[C@H]5CO[C@@](C[N]6C=NC=N6)(O5)C7=CC=C(Cl)C=C7Cl)C=C4 (stereo not given in full)	458	463	458	468	472	452	448	456	454
C[C@H](CCC(=O)O)[C@H]1CCC2C3C[C@H](O)[C@@H]4C[C@H](O)CC[C@]4(C)C3CC[C@@]21C (stereo not given in full)	454	450	463	452	452	469	449	458	459
N#CC(c1ccnc(NCCc2cccnc2)n1)c1nc2ccccc2s1 (stereo not given)	467	473	470	454	448	468	469	475	450
CN(C)C1=CC(=CC=C1)C\2=C\3C(=O)N(NC3=C/C(=O)N2C)C4=CC=CC=C4Cl	312	327	342	322	317	311	292	314	314
COc1ccc(OC)c(-c2nnc3ccc(-c4ccc(OC)c(O[C@@H]5CCOC5)c4)nn23)c1	473	458	466	477	470	473	463	477	469
CCc1cc2c(cc1N1CCC(N3CCOCC3)CC1)C(C)(C)c1[nH]c3cc(C#N)ccc3c1C2=O	464	443	451						
CC[N+](CC)(CC)CCOc1cccc(OCC[N+](CC)(CC)CC)c1OCC[N+](CC)(CC)CC	451	455	456	423	463	477	400	439	445
N[S+](=O)([O-])c1cc2c(cc1Cl)NC(C(Cl)Cl)N[S+]2(=O)[O-] (stereo not given)	456	459	467	431	450	447	450	453	442
OC[C@H]1O[C@H](C[C@@H]1O)N2\C=C(F)/C(=O)NC2=O	244	298	259	243	352	198	250	347	214
CCCC(C)(COC(N)=O)COC(=O)NC(C)C (stereo not given)	459	455	458	451	443	412	466	451	446
C[C@H]1C[C@H]2[C@@H]3CC[C@](O)(C(=O)CO)[C@@]3(C)C[C@H](O)[C@@H]2[C@@]\4(C)/C=C\C(=O)\C=C14	378	341	314	315	357	352	456	444	451
CC(=O)N[C@@H]1[C@@H](NC(N)=N)\C=C(/O[C@H]1[C@H](O)[C@H](O)CO)C(O)=O	461	466	471	457	421	419	464	463	443
CCC[S+](=O)([O-])Nc1ccc(F)c(C(=O)c2c[nH]c3ncc(Cl)cc23)c1F	439	450	431	409	419	425	403	437	440
CCN(CC)CCOc1ccc(Cc2ccccc2)cc1	417	446	409	442	380	409	403	431	464
NC(=O)Nc1sc(-c2ccc(F)cc2)cc1C(N)=O	419	421	414	425	304	402	415	436	415
Clc1cccc(-n2nnnc2NCc2ccccc2Oc2ccccn2)c1Cl	458	467	441	439	470	474	472	472	470
C=C1C(=O)[C@@]23C(CC[C@@H]1[C@H]2O)[C@@]12CO[C@]3(O)[C@@H](O)[C@@H]1C(C)(C)CC[C@@H]2O (stereo not given in full)	409	394	389				435	444	451
Cc1nn(C)c(COc2ccc(N3CCN([S+](=O)([O-])N(C)C)CC3)cc2)c1-c1cccc2c(CCCOc3cccc4ccccc34)c(C(=O)O)n(CCN3CCOCC3)c12	392	463	456	465	377	458			
O=C1CCC[C@@H]2[C@H]3CCCN4CCC[C@@H](CN12)[C@@H]34	426	396	389	324	390	347			
